Where two headings read alike, the source gives them in different places.

Series [1] is described as follows: rat adjuvant arthritis test (antiinflammatory activity). It counts as in vivo, Female Wistar/Lewis rats. As to conditions: oral, daily for 4 days, inhibition of noninjected hind paw volume vs controls, compounds given as aqueous solutions of sodium salts. The procedure: The antiinflammatory activity of the compounds of the instant invention was measured using the rat adjuvant arthritis test [S. Wong, J. F. Gardocki and T. P. Pruss, J. Pharmacol. and Exp. Ther. 185, 127 (1973)]. Female Wistar/Lewis rats were given an injection of heat-killed Mycobacterium butyricum in light mineral oil. After 11 days, the animals which had developed an arthritic condition were selected and given daily oral doses of test drug for 4 days. Paw volumes were measured and the percent inhibition of the noninjected hind paw as compared to controls was calculated. The results (Table I) are expressed as ED50 (mg/kg/day).

Series [2] can be described thus: gastric ulceration test (ability to induce gastric ulceration, 4 days oral dosing). As to conditions: in vivo; for selectivity ratio: therapeutic index in respect to gastric ulceration, * = significantly different from parent compound p ≤0.05, read-out: AII (antiinflammatory index, UD50/ED50). The procedure:
In addition to their antiinflammatory activity, the compounds were evaluated for their ability to induce gastric ulceration since gastric irritation is the most significant side effect following administration of prostaglandin biosynthesis inhibitors. As described by Wong et al., the dose (UD50 mg/kg/day) required to produce 50 percent ulcerogenic response following 4 days of oral dosing with test drug was determined. The results are shown in Table I. As described by Wong et al., a therapeutic index in respect to gastric ulceration, the "antiinflammatory index (AII)" defined as UD50 /ED50, was determined.

The conditions of series [3]: in vivo; cited from earlier work.
Series [4] deals with prostaglandin biosynthesis. As to conditions: cited from earlier work.

Turning to `Cc1cc(CC(=O)NC(CCCCN)C(=O)O)n(C)c1C(=O)c1ccc(Cl)cc1` (centres unmarked) [X, N^2 -{[5-(4-chlorobenzoyl)-1,4-dimethyl-1H-pyrrol-2-yl]-acetyl}-lysine-hydrate(5:8)], the ED50 in series [1] (96 h, read-out: ED50) is 0.64 mg/kg. Besides, in series [2], the TD50 at 96 h worked out at 35.1 mg/kg and the selectivity ratio turned out to be 54.8.

Take `Cc1cc(CC(=O)NCC(=O)O)n(C)c1C(=O)c1ccc(Cl)cc1` [Example VII, N-{[5-(4-chlorobenzoyl)-1,4-dimethyl-1H-pyrrol-2-yl]-acetyl}-glycine]: the ED50 in series [1] (96 h, read-out: ED50) turned out to be 0.61 mg/kg. In series [2], the TD50 at 96 h is 21.1 mg/kg and the selectivity ratio stood at 34.4.

In the case of `Cc1cc(CC(=O)N[C@@H](CCC(=O)O)C(=O)O)n(C)c1C(=O)c1ccc(Cl)cc1` [VIII (3), N--{[5-(4-chlorobenzoyl)-1,4-dimethyl-1H--pyrrol-2-yl]-acetyl}-glutamic acid], the ED50 in series [1] was determined as 0.54 mg/kg/day. Also, in series [2], the “AII (antiinflammatory index, UD50/ED50)” value is 68.9. For the same molecule, in series [2] (96 h), the UD50 is recorded as 37.0 mg/kg/day.

In the case of `Cc1cc(CC(=O)N[C@@H](CCC(N)=O)C(=O)O)n(C)c1C(=O)c1ccc(Cl)cc1` [XI, N-{[5-(4-chlorobenzoyl)-1,4-dimethyl-1H-pyrrol-2-yl]-acetyl}-glutamine], in series [1] (96 h, read-out: ED50), the ED50 was 0.72 mg/kg. Also, in series [2], the TD50 at 96 h is 33.4 mg/kg and the selectivity ratio came out at 46.5.

For `Cc1cc(CC(=O)O)n(C)c1C(=O)c1ccc(Cl)cc1` [zomepirac, [5-(4-chlorobenzoyl)-1,4-dimethyl-1H-pyrrol-2-yl]acetic acid, reference compound], the “side effect (in words)” value in series [3] is on record as “gastrointestinal irritation”. In addition, the ED50 in series [1] (96 h, read-out: ED50) amounted to 0.51 mg/kg. Also, in series [4], the “mode of action (in words)” value is recorded as “inhibition of prostaglandin biosynthesis”. Further, in series [2], the TD50 at 96 h was determined as 13.8 mg/kg and the selectivity ratio was 27.2.

For `Cc1cc(CC(=O)NC(C)C(=O)O)n(C)c1C(=O)c1ccc(Cl)cc1` (centres unmarked) [VIII (1), N--{[5-(4-chlorobenzoyl)-1,4-dimethyl-1H--pyrrol-2-yl]-acetyl}-alanine], the 50% effective dose (ED50) in series [1] (96 h, read-out: ED50) was determined as 0.67 mg/kg. Also, in series [2], the TD50 at 96 h was determined as 25.4 mg/kg and the selectivity ratio came to 37.6.

Consider `CSCCC(NC(=O)Cc1cc(C)c(C(=O)c2ccc(Cl)cc2)n1C)C(=O)O` (centres unmarked) [VIII (2), N--{[5-(4-chlorobenzoyl)-1,4-dimethyl-1H--pyrrol-2-yl]-acetyl}-methionine], for which the ED50 in series [1] (96 h, read-out: ED50) turned out to be 0.93 mg/kg. Besides, in series [2], the TD50 at 96 h is 43.7 mg/kg and the selectivity ratio stood at 46.9.

`Cc1cc(CC(=O)NC(CC(=O)O)C(=O)O)n(C)c1C(=O)c1ccc(Cl)cc1` (centres unmarked) [VIII (4), N--{[5-(4-chlorobenzoyl)-1,4-dimethyl-1H--pyrrol-2-yl]-acetyl}-aspartic acid]: the ED50 in series [1] (96 h, read-out: ED50) stood at 0.76 mg/kg. In series [2], the TD50 at 96 h was determined as 71 mg/kg and the selectivity ratio is 93.1.
